Data as given in patent US7998940B2, “Aptamers to von Willebrand factor and their use as thrombotic disease therapeutics” (Archemix Corp., priority 2004, dated 2011).
Like-named read-outs stand apart in the source and are kept apart here. [invdT] = inverted (3'-3') thymidine; d = 2'-deoxy (DNA); m = 2'-O-methyl

Tests used:
[1] = system: full length human vWF (SEQ ID NO 7); assay: dot blot KD determination and extent of binding, full length human vWF; conditions: for % binding @ 100 nM vWF: extent of aptamer binding at 100 nM full length human vWF; for Kd: full length human vWF, read-out: KD;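 for all read-outs here: dot blot binding of aptamers to full length human vWF across a protein titration, incubated 30 minutes at room temperature in 1x DPBS with BSA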
[2] = system: full length human vWF binding to lyophilized platelets; assay: Full length human von Willebrand Factor platelet binding assay (FACS); type: cell-based; conditions: read-out: FACS IC50 vs human full length vWF
In short: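 Aptamer titrations (0.1–1000 nM) pre-incubated with 5 nM full-length human vWF, then added to lyophilized platelets plus botrocetin for 15 min at 37 °C in PBS/0.5% BSA. Bound vWF detected by anti-vWF then FITC secondary antibody via flow cytometry MFI; % inhibition versus no-aptamer binding fitted for IC50.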

[3] = system: rabbit vWF domain A1 binding to lyophilized platelets; assay: Rabbit von Willebrand Factor domain A1 platelet binding assay (FACS); type: cell-based; conditions: read-out: FACS IC50 vs rabbit A1 domain
rabbit vWF domain A1 binding to lyophilized platelets, sequence (as listed by the source): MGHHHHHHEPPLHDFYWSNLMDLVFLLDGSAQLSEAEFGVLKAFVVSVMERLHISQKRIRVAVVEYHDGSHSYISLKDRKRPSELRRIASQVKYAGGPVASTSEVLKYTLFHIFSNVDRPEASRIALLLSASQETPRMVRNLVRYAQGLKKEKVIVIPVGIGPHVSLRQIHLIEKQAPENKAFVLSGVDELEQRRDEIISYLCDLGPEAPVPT
Description: Botrocetin induces the binding of the A1 domain of vWF to platelets, as well as the full length protein. It was determined by the inventors that 6-Histidine-tagged rabbit A1 domain vWF purified protein could be induced to bind to human lyophilized platelets with botrocetin. Rabbit A1 binding to platelets is measured with an anti-poly-His antibody followed by incubation with a phycoerythrin conjugated secondary antibody. The degree of binding can be quantified by flow cytometric analysis. The ability of aptamers to block the binding of rabbit A1 to human fixed platelets was correlated with decreased fluorescence signal.
The ability of aptamers of the invention to block rabbit vWF domain A1 binding to lyophilized platelets was also assessed by flow cytometric analysis. Titrations of aptamers (zero, 0.1 nM to 1000 nM) were preincubated briefly with 4 nM of rabbit A1 vWF in FACS buffer (PBS plus 0.5% bovine serum albumin) at room temperature in a volume of 50 uL. Another 50 uL containing 5 uL of lyophilized platelets plus 1 uL of 0.1 U/uL of botrocetin in FACS buffer was added to aptamer/vWF. This reaction was allowed to proceed for 15 minutes at 37 degrees C. after which 200 uL of FACS buffer was added. Platelets were collected by a 6 minute spin at 1470 RCF and the supernatant was discarded. The pellets were resuspended in 100 uL of FACS buffer containing a 1:200 dilution of anti-Penta-HIS-biotin conjugate antibody and were incubated at room temperature for 30 minutes. After the dilution with 200 uL of FACS buffer, the platelets were spun at 1470 RCF for 6 minutes, and the supernatant was discarded. The pellets were resuspended in a 1:100 solution of anti-IgG-PE antibody and were incubated in the dark for 30 minutes at room temperature. The entire 100 uL was diluted into 200 uL of FACS buffer and analyzed immediately by flow cytometric analysis in the FACSCAN. Contaminating debris was eliminated from the analysis by drawing a gate around the population of single and aggregated platelets and collecting data from 10000 events. Median fluorescent intensity (“MedFI”) readings (which are generally equivalent to the MFI readings, described in Example 3a above, for comparative purposes) were quantified for each sample analyzed by flow cytometry. Background MedFI was subtracted from all data points. Percent inhibition was reported by calculating the percent value of binding of […] to platelets in the presence of aptamer at a given concentration relative to binding in the absence of any aptamer (see FIG. 7). IC50 values were determined by fitting the percent inhibition of vWF binding to platelets as a function of aptamer concentration to the equation: % inhibition=% inhibitionmax/(1+IC50/aptamer conc.)

[4] = system: botrocetin induced platelet aggregation; assay: Inhibition of botrocetin induced platelet aggregation (BIPA) in human PRP; type: cell-based; conditions: human platelet rich plasma
Description: In platelet rich plasma isolated from fresh human blood, botrocetin induces platelet aggregation via vWF. Platelet aggregate formation can be measured optically as an increase in % light transmittance on a Chronolog Model 490-4D Aggregometer because aggregation of platelets clarifies the plasma. Aptamers of the invention were analyzed for their ability to inhibit botrocetin induced platelet aggregation (“BIPA”) in human blood. An aptamer of the invention was considered to be active if it could prevent aggregate formation for six minutes post botrocetin addition.
In order to determine the activity of aptamers on live human platelets, BIPA assays were done using freshly prepared platelet rich plasma. Blood was obtained from healthy human donors who had not taken NSAIDS for at least five days. […] Collected blood was pooled into 15 mL conical tubes and was spun at 200 g for 20 minutes. The turbid, yellow layer of platelet rich plasma (“PRP”) was withdrawn from the tubes, pooled, and set aside at room temperature. The remaining blood was spun at 2500 g for ten minutes. The clarified layer of plasma, known as platelet poor plasma (“PPP”), was withdrawn and set aside at room temperature. PRP was aliquoted into cuvettes containing stir bars at a volume of 470 uL. A sample of 500 uL of PPP was aliquoted into a cuvette and placed in the PPP reference cell of the platelet aggregometer. Samples of PRP were prewarmed at 37 degrees C. in the platelet aggregometer for 3-5 minutes before being used in BIPA assays. First, the concentration of botrocetin needed to induce platelet aggregation for each individual donor was determined by titration. This concentration of botrocetin was used for the remainder of the experiment. Next, aptamer was assayed by adding titrations of aptamer (zero, 1 nM to 1000 nM) to prewarmed PRP for one minute, followed by addition of botrocetin. With platelet aggregation, an increase in amplitude of light transmission is seen (FIG. 8). The concentration at which platelet aggregation is blocked at 90% or greater after 6 minutes is reported in the final column of Table 26.

[5] = not given; remark: listed apart in the source

Substance | % binding @ 100 nM vWF ([1]; Phase 4 and 5 modification) [%] | Kd ([1]; Phase 4 and 5 modification) [µM] | T½ Human plasma [h] | % binding @ 100 nM vWF ([1]; Phase 2 modification) [%] | Kd ([1]; Phase 2 modification) [µM] | binding to human vWF ([1]; in words, dot blot) | IC50 [2] [µM] | IC50 [3] [µM] | IC90 [4] [nM] | T½ Rat plasma [5] [h]
mCmGmGmCdCmG-s-TmGdCdGdGTmGmCdCmUdCdCmGmUmCmAmCPEGmGmUdGdCdAmGmUmGmCmCmG-3T (CGGCCGTGCGGTGCCUCCGUCACGUGCAGUGCCGT; chemistry not fully specified) [ARC1533] | 31.7 | 0.004 | 93 | – | – | – | – | – | – | –
mGmCmGmUdGdCdAmGmUmGmCmCmUmUmCmGmGmCdCmGTmGdCdGdGTmGmCdCmUdCdCmGmUmCmAmCmGmC-3T (GCGUGCAGUGCCUUCGGCCGTGCGGTGCCUCCGUCACGC; sugars from the 5' end mmmmdddmmmmmmmmmmmdmdmddddmmdmddmmmmmmm, [invdT] at 3' end, backbone and methylation of C not given here) [ARC1346] | – | – | – | 51 | 0.011 | the most potent | 0.05 | 0.18 | > 1000 | 19
